Publication PMC6679371, “Synthesis and Evaluation of Novel Pyrazole Ethandiamide Compounds as Inhibitors of Human THP-1 Monocytic Cell Neurotoxicity” (Cells, 2019)
“Also recorded” adds a separate entry of the source.

How the values were obtained:
[1] = test system: stimulated human monocytic THP-1 cells; experiment: Viability of LPS plus IFN-γ stimulated THP-1 cells (MTT assay); format: cell-based; details: 1–100 μM, added 15 min before LPS plus IFN-γ, 24 h
Procedure: (§1) The MTT assay was performed as described by Mosmann and by Hansen et al.. Cell viability was determined by adding MTT to the cell cultures to reach a final concentration of 500 μg mL^−1. Following one h incubation at 37 °C, the dark purple crystals formed by viable cells were dissolved by adding to the wells an equal volume of the extraction buffer containing 20% sodium dodecyl sulfate and 50% N,N-dimethylformamide, pH 4.7. After overnight incubation at 37 °C, 100 μL aliquots of MTT solutions were transferred to a 96-well plate, and a FLUOstar Omega platereader (BMG Labtech, Offenburg, Germany) was used to measure the optical densities at 570 nm. Cell viability in various samples was calculated as percent of the optical density value obtained with cells incubated in fresh cell culture medium only.
(§2) The anti-neurotoxic activity of the compounds was evaluated using a method described previously. Human monocytic THP-1 cells were transferred to 24-well plates in 800 µL aliquots of 5 × 10^5 cells mL^−1 per well. The cells were pre-incubated with varying concentrations of pyrazole derivatives or their DMSO vehicle solution for 15 min before stimulation with a combination of lipopolysaccharide (LPS, 0.5 µg mL^−1) and human interferon-γ (IFN-γ, 150 U mL^−1). […] After 24 h incubation, 400 µL of supernatants from THP-1 cells was transferred to SH-SY5Y cells (seeded 24 h earlier in 24-well plates; 400 µL of 2 × 10^5 cells mL^−1). The viability of THP-1 cells was measured by the MTT assay immediately after the transfer of the supernatants. The effects of THP-1 cell supernatants on SH-SY5Y neuronal cell viability were measured by the MTT assay after 72 h incubation. […] The concentrations of stimuli and incubation times of THP-1 cells with the stimuli were selected in preliminary experiments so that significant partial killing of SH-SY5Y cells was achieved (20–30% viable cells left), which could be a result of the combined action of cytotoxins secreted by THP-1 cells and depletion of nutrients from the cell culture medium by the stimulated THP-1 cells.

[2] = test system: immune-stimulated human THP-1 monocytic cells (toxicity toward SH-SY5Y neuronal cells); experiment: Anti-neurotoxic activity: supernatants of compound-treated stimulated THP-1 cells transferred to SH-SY5Y cells (MTT assay); format: cell-based; details: for IC50: Homo sapiens, estimated from Figure 4, read-out: IC50 for reducing toxic effect of stimulated THP-1 supernatants on SH-SY5Y cells
Procedure: as §1, §2

SH-SY5Y cells [3] = test system: SH-SY5Y cells; set-up: method as in PMID 20609589; details: earlier report; cited from earlier work
SH-SY5Y cells [4] = experiment: Neuroprotective activity: compounds added directly to SH-SY5Y cells with stimulated THP-1 supernatants (MTT assay); format: cell-based, human
Procedure: as §1
SH-SY5Y cells were seeded into 24-well plates (400 µL at 2 × 10^5 cells mL^−1). After 24 h incubation, the cell culture medium was replaced with 400 µL of supernatants from THP-1 cells that had been stimulated for 24 h with LPS plus IFN-γ, as described in 2.6. Varying concentrations of the compounds or the DMSO vehicle solution were added directly to SH-SY5Y cells at the time of the supernatant transfer. The viability of SH-SY5Y cells was measured by the MTT assay 72 h later.

[5] = test system: human PC-3 prostate cancer cells; experiment: Cytotoxicity of pyrazole derivatives to PC-3 cells (MTT assay); format: cell-based; details: 100 μM (highest concentration tested), 48 h
Procedure: as §1
PC-3 prostate cancer cells were transferred to 24-well plates in 500 µL aliquots of 1.5 × 10^5 cells mL^−1 per well. Varying concentrations of the pyrazole derivatives or the 0.5% DMSO vehicle were added to the cells. After 48 h incubation, cell viability was measured by using the MTT assay.

Row | Structure (SMILES) | toxicity to stimulated THP-1 cells (cell viability, MTT) [1] | IC50 [2] [µM] | melting point [°C] | further results
1 | N#Cc1cnn(-c2ccccc2)c1NC(=O)C(=O)N(C1CCCCC1)C1CCCCC1 [2b] | None of these six derivatives were toxic | 10 to 50 | 188 to 190 | 
2 | N#Cc1cnn(-c2ccccc2)c1NC(=O)C(=O)Nc1ccc(O)cc1 [2f] |  |  | 237 to 239 | 
3 | N#Cc1cnn(-c2ccccc2)c1NC(=O)C(=O)Nc1c(C#N)cnn1-c1ccccc1 [compound 1] |  |  |  | direct neuroprotective activity (SH-SY5Y cells [3]): showed this effect
4 | N#Cc1cnn(-c2ccccc2)c1NC(=O)C(=O)Nc1ccc(N)cc1 [2e] | None of these six derivatives were toxic | 10 to 50 | 258 to 261 | 
5 | CN(C)CCOC(=O)C(=O)Nc1c(C#N)cnn1-c1ccccc1 [compound 3] | None of these six derivatives were toxic | 10 to 50 | 139 to 141 | direct neuroprotective effect on SH-SY5Y cells (SH-SY5Y cells [4]; 1–100 μM, added at the time of supernatant transfer): neuroprotective effect; viability at 100 µM (SH-SY5Y cells [4]; Homo sapiens, SH-SY5Y, 100 μM, 72 h, without compound 20–30%): > 40%
6 | C=CCNC(=O)C(=O)Nc1c(C#N)cnn1-c1ccccc1 [2d] | None of these six derivatives were toxic |  | 108 to 110 | change in PC-3 cell viability [5]: small yet significant increase in cell viability; change in SH-SY5Y cell viability ([2]; 100 μM, supernatant transfer from treated THP-1 cells, 72 h): small but significant decrease in SH-SY5Y cell viability; also recorded: small yet significant reduction of SH-SY5Y cell viability; protective (anti-neurotoxic) effect ([2]; 1–100 μM): no protective effect; change in SH-SY5Y cell viability, compound added directly (SH-SY5Y cells [4]; 100 μM, 72 h): small but significant decrease in SH-SY5Y cell viability
7 | N#Cc1cnn(-c2ccccc2)c1NC(=O)C(=O)NCCCCCCCCCN [2a] | None of these six derivatives were toxic | 50 to 100 | 108 to 110 | concentrations at which the protective effect was statistically significant ([2]; tested 1–100 μM, Dunnett's post-hoc test): 100 µM
8 | CN(C)C(=O)C(=O)Nc1c(C#N)cnn1-c1ccccc1 [2c] | None of these six derivatives were toxic | 10 to 50 | 250 to 253 | 
